Laboratory results published in patent US6558923B2 (priority 1998, dated 2003).

Key:
Type in all cases: cell-based, HIV-1
NL4-3 reference virus = experiment: microbe, parasite or virus in culture; settings: Human immunodeficiency virus 1, NL43, read-out: Geometric-mean IC90
[1] = tested on: recombinant virus carrying gag-protease sequences from patient plasma
[2] = tested on: recombinant virus carrying protease sequences from patient plasma

Row | Compound | IC90 (NL4-3 reference virus) [nM] | Sensitivity correlated with genotype [1] | Effect of increasing protease inhibitor concentrations on infectivity of recombinant particles [2] | Reduction in sensitivity [1] [fold] | Sensitivity [1] | Change in IC90 [2] | IC90 of pre-therapy recombinant viruses compared with the other protease inhibitors [2] | Susceptibility of pre-therapy virus from patient B versus pre-therapy virus from patient A [2]
1 | CC(C)c1nc(CN(C)C(=O)N[C@H](C(=O)N[C@@H](Cc2ccccc2)C[C@H](O)[C@H](Cc2ccccc2)NC(=O)OCc2cncs2)C(C)C)cs1 [Ritonavir] | 23 | reduced sensitivity |  |  |  |  |  | 
2 | CC(C)(C)NC(=O)[C@@H]1CN(Cc2cccnc2)CCN1C[C@@H](O)C[C@@H](Cc1ccccc1)C(=O)N[C@H]1c2ccccc2C[C@H]1O [Indinavir] | 16 | reduced sensitivity | clear and gradual inhibition of single-cycle particle infectivity | 10 | further reduced |  |  | 
3 | Cc1c(O)cccc1C(=O)N[C@@H](CSc1ccccc1)[C@H](O)CN1C[C@H]2CCCC[C@H]2C[C@H]1C(=O)NC(C)(C)C [Nelfinavir, nelfinavir] | 3.5 | reduced sensitivity |  |  |  |  |  | 
4 | CC(C)CN(C[C@@H](O)[C@H](Cc1ccccc1)NC(=O)O[C@H]1CCOC1)S(=O)(=O)c1ccc(N)cc1 [Amprenavir, amprenavir] | 54 |  |  |  |  |  |  | 
5 | CC(C)(C)NC(=O)[C@@H]1C[C@@H]2CCCC[C@@H]2CN1C[C@@H](O)[C@H](Cc1ccccc1)NC(=O)[C@H](CC(N)=O)NC(=O)c1ccc2ccccc2n1 [Saquinavir] | 28 | resistance | clear and gradual inhibition of single-cycle particle infectivity | 4 | further reduced | prominent increase | always significantly lower | clearly less susceptible
